According to patent publication US9732070B2, “Protein kinase C inhibitors and uses thereof” (Rigel Pharmaceuticals, Inc., priority 2009, dated 2017):

Tested on: Human primary T cells
Assay: IL-2 ELISA, human primary T cell, anti-CD3+CD28 stimulation
Format: cell-based
Conditions: IL-2 quantified by ELISA, human primary T cells stimulated with αCD3 and αCD28, 24 hours
Description: Human primary T cell isolation and culture: Human primary T cells were prepared as follows. Whole blood was obtained from a healthy volunteer, mixed 1:1 with PBS, layered on to Ficoll Hypaque (Amersham Pharmacia Biotech, Piscataway, N.J., Catalog #17-1440-03) in 2:1 blood/PBS:ficoll ratio and centrifuged for 30 minutes at 4° C. at 1750 rpm. The cells at the serum: ficoll interface were recovered and washed twice with 5 volumes of PBS. These freshly isolated human peripheral blood mononuclear cells were cultured in Yssel's medium containing 40 U/mL IL2 in a flask pre-coated with 1 μg/mL αCD3 and 5 μg/mL αCD28 (Anti-Human CD3, BD Pharmingen Catalog #555336, Anti-Human CD28, Beckman Coulter Catalog #IM1376). The cells were stimulated for 3-4 days, then transferred to a fresh flask and maintained in RPMI (RPMI-1640 with L-Glutamine; Mediatech, Inc., Herndon Va., cat. #10-040-CM) with 10% FBS and 40 U/mL IL-2. The primary T-cells were then washed twice with PBS to remove the IL-2.
Primary T cell stimulation and IL2 ELISA: Human primary T cells (100,000 cells per well) were pre-incubated with or without test compound in Yssel's medium for 1 hour at 37° C. Cells were then stimulated by transferring them to round-bottom 96-well plates pre-coated with 1 μg/ml αCD3 and 5 μg/ml αCD28. For counter assay, cells were instead stimulated by adding 8× stock solutions of PMA and ionomycin in Yssels (for final concentrations of 0.5 ng/ml PMA and 0.1 uM ionomycin, both from Calbiochem). Cells were incubated at 37° C. for 24 hours before 100 μL supernatants were harvested for quantification of IL-2 by ELISA using Human IL-2 Duoset ELISA Kit from R and D Systems, Cat. # DY202E.

SMILES	IC50 (T-cell) [nM]	IC50 [nM]
Cc1cc(Nc2ncc(F)c(NC3CC(C)(C)N(C)C(C)(C)C3)n2)cc(-n2nnn(C)c2=O)c1C [I-45, N2-(4,5-dimethyl-3-(4-methyl-4,5-dihydro-5-oxo-1H-tetrazol-1-yl)phenyl)-5-fluoro-N4-(1,2,2,6,6-pentamethylpiperidin-4-yl)pyrimidine-2,4-diamine]	< 500	–
CN1C(C)(C)CC(Nc2nc(Nc3cc(-n4nnn(C)c4=O)cc(C(F)(F)F)c3)ncc2F)CC1(C)C [I-47, N2-(3-(4-methyl-4,5-dihydro-5-oxo-1H-tetrazol-1-yl)-5-trifluoromethylphenyl)-5-fluoro-N4-(1,2,2,6,6-pentamethylpiperidin-4-yl)pyrimidine-2,4-diamine]	< 500	–
Cn1nnn(-c2cc(Nc3ncc(F)c(NC4CC(C)(C)NC(C)(C)C4)n3)cc(C(F)(F)F)c2)c1=O [I-48, N2-(3-(4-methyl-4,5-dihydro-5-oso-1H-tetrazol-1-yl)-5-trifluoromethylphenyl)-5-fluoro-N4-(2,2,6,6-tetramethylpiperidin-4-yl)pyrimidine-2,5-diamine]	< 500	–
CC(C)Oc1c(-n2nnn(C)c2=O)cc(Nc2ncc(F)c(NC3CC(C)(C)NC(C)(C)C3)n2)cc1C(F)(F)F [I-51, N2-(4-isopropoxy-3-(4-methyl-4,5-dihysro-5-oxo-1H-tetrazol-1-yl)-5-trifluoromethylphenyl)-5-fluoro-N4-(2,2,6,6-tetramethylpiperidin-4-yl)pyrimidine-2,4-diamine]	–	< 500
CC(C)Oc1c(-n2nnn(C)c2=O)cc(Nc2ncc(F)c(NC3CC(C)(C)N(C)C(C)(C)C3)n2)cc1C(F)(F)F [I-52, N2-(4-isopropoxy-3-(4-methyl-4,5-dihysro-5-oxo-1H-tetrazol-1-yl)-5-trifluoromethylphenyl)-5-fluoro-N4-(1,2,2,6,6-pentamethylpiperidin-4-yl)pyrimidine-2,4-diamine]	–	< 500
Cc1c(Cl)cc(Nc2ncc(F)c(NC3CC(C)(C)NC(C)(C)C3)n2)cc1-n1nnn(C)c1=O [I-55, N2-(5-chloro-4-methyl-3-(4-methyl-4,5-dihysro-5-oxo-1H-tetrazol-1-yl)phenyl)-5-fluoro-N4-(2,2,6,6-tetramethylpiperidin-4-yl)pyrimidine-2,4-diamine]	< 500	–
Cc1c(Cl)cc(Nc2ncc(F)c(NC3CC(C)(C)N(C)C(C)(C)C3)n2)cc1-n1nnn(C)c1=O [I-56, N2-(5-chloro-4-methyl-3-(4-methyl-4,5-dihydro-5-oxo-1H-tetrazol-1-yl)phenyl)-5-fluoro-N4-(1,2,2,6,6-pentamethylpiperidin-4-yl)pyrimidine-2,4-diamine]	< 500	–
Cn1nnn(-c2cc(Nc3ncc(F)c(NC4CC(C)(C)NC(C)(C)C4)n3)cc(F)c2C2CC2)c1=O [I-59, 1-(2-cyclopropyl-3-fluoro-5-(5-fluoro-4-(2,2,6,6-tetramethylpiperidin-4-ylamino)pyrimidin-2-ylamino)phenyl)-4-methyl-1H-tetrazol-5(4H)-one]	< 500	–
Cn1nnn(-c2cc(Nc3ncc(C#N)c(NC4CC(C)(C)NC(C)(C)C4)n3)cc(F)c2C2CC2)c1=O [I-62, N2-(4-cyclopropyl-5-fluoro-3-(4-methyl-4,5-dihydro-5-oxo-1H-tetrazol-1-yl)phenyl)-N4-(2,2,6,6-tetramethylpiperidin-4-yl)pyrimidine-2,4-diamino-5-carbonitrile]	< 500	–
COC(=O)c1cc(Nc2ncc(F)c(NC3CC(C)(C)N(C)C(C)(C)C3)n2)cc(-n2nnn(C)c2=O)c1C [I-63, Methyl 5-((5-fluoro-4-((1,2,2,6,6-pentamethylpiperidin-4-yl)amino)-2-pyrimidinyl)amino)-2-methyl-3-(4-methyl-4,5-dihysro-5-oxo-1H-tetrazol-1-yl)benzoate]	< 500	–

Now from value to compound:

IC50 (T-cell) [nM]	IC50 [nM]	SMILES
< 500	–	Cn1nnn(-c2cc(Nc3ncc(C#N)c(NC4CC(C)(C)NC(C)(C)C4)n3)cc(C(F)(F)F)c2C2CC2)c1=O [I-41, 5-cyano-N2-{4-cyclopropyl-5-trifluoromethyl-[3-(4-methyl)-1,2,3,4-tetrazol-5-one-1-yl]}phenyl-N4-(2,2,6,6-tetramethylpiperidin-4-yl)-2,4-pyrimidinediamine]
< 500	–	CN1C(C)(C)CC(Nc2nc(Nc3cc(-n4nnn(C)c4=O)c(C4CC4)c(C(F)(F)F)c3)ncc2C#N)CC1(C)C [I-42, 5-cyano-N2-{4-cyclopropyl-5-trifluoromethyl-[3-(4-methyl)-1,2,3,4-tetrazol-5-one-1-yl]}phenyl-N4-(1,2,2,6,6-pentamethylpiperidin-4-yl)-2,4-pyrimidinediamine]
< 500	–	Cn1nnn(-c2cc(Nc3ncc(F)c(NC4CC(C)(C)NC(C)(C)C4)n3)cc(C3CC3)c2F)c1=O [I-43, N2-{5-cyclopropyl-4-fluoro-[3-(4-methyl)-1,2,3,4-tetrazol-5-one-1-yl]}phenyl-5-fluoro-N4-(2,2,6,6-tetramethylpiperidin-4-yl)-2,4-pyrimidinediamine]
< 500	–	Cn1nnn(-c2cc(Nc3ncc(C#N)c(NC4CC(C)(C)NC(C)(C)C4)n3)cc(C3CC3)c2F)c1=O [I-44, 5-cyano-N2-{5-cyclopropyl-4-fluoro-[3-(4-methyl)-1,2,3,4-tetrazol-5-one-1-yl]}phenyl-N4-(2,2,6,6-tetramethylpiperidin-4-yl)-2,4-pyrimidinediamine]
< 500	–	Cc1cc(Nc2ncc(F)c(NC3CC(C)(C)NC(C)(C)C3)n2)cc(-n2nnn(C)c2=O)c1C [I-46, N2-(4,5-dimethyl-3-(4-methyl-4,5-dihydro-5-oxo-1H-tetrazol-1-yl)phenyl)-5-fluoro-N4-(2,2,6,6-tetramethylpiperidin-4-yl)pyrimidine-2,4-diamine]
< 500	–	CN1C(C)(C)CC(Nc2nc(Nc3cc(C#N)cc(-n4nnn(C)c4=O)c3)ncc2F)CC1(C)C [I-49]
< 500	–	Cn1nnn(-c2cc(C#N)cc(Nc3ncc(F)c(NC4CC(C)(C)NC(C)(C)C4)n3)c2)c1=O [I-50, N2-(5-cyano-3-(4-methyl-4,5-dihysro-5-oxo-1H-tetrazol-1-yl)phenyl)-5-fluoro-N4-(2,2,6,6-tetramethylpiperidin-4-yl)pyrimidine-2,4-diamine]
< 500	–	Cc1c(-n2nnn(C)c2=O)cc(Nc2ncc(F)c(NC3CC(C)(C)NC(C)(C)C3)n2)cc1C(F)(F)F [I-53, N2-(4-methyl-3-(4-methyl-4,5-dihydro-5-oxo-1H-tetrazol-1-yl)-5-trifluoromethylphenyl)-5-fluoro-N4-(2,2,6,6-tetramethylpiperidin-4-yl)pyrimidine-2,5-diamine]
< 500	–	Cc1c(-n2nnn(C)c2=O)cc(Nc2ncc(F)c(NC3CC(C)(C)N(C)C(C)(C)C3)n2)cc1C(F)(F)F [I-54, N2-(4-methyl-3-(4-methyl-4,5-dihysro-5-oxo-1H-tetrazol-1-yl)-5-trifluoromethylphenyl)-5-fluoro-N4-(1,2,2,6,6-pentamethylpiperidin-4-yl)pyrimidine-2,4-diamine]
< 500	–	Cn1nnn(-c2cc(Nc3ncc(C(N)=O)c(NC4CC(C)(C)NC(C)(C)C4)n3)cc(F)c2C2CC2)c1=O [I-57, N2-(4-cyclopropyl-5-fluoro-3-(4-methyl-4,5-dihydro-5-oxo-1H-tetrazol-1-yl)phenyl)-N4-(2,2,6,6-tetramethylpiperidin-4-yl)pyrimidine-2,4-diamino-5-carboxyamide]
< 500	–	Cn1nnn(-c2cc(Nc3ncc(F)c(NC4CC(C)(C)NC(C)(C)C4)n3)ccc2C#N)c1=O [I-58, N2-(4-cyano-3-(4-methyl-4,5-dihydro-5-oxo-1H-tetrazol-1-yl)phenyl)-5-fluoro-N4-(2,2,6,6-tetramethylpiperidin-4-yl)pyrimidine-2,4-diamine]
< 500	–	COC(=O)c1cc(Nc2ncc(F)c(NC3CC(C)(C)NC(C)(C)C3)n2)cc(-n2nnn(C)c2=O)c1C [I-60, Methyl 5-((5-fluoro-4-((2,2,6,6-tetramethylpiperidin-4-yl)amino)-2-pyrimidinyl)amino)-2-methyl-3-(4-methyl-4,5-dihysro-5-oxo-1H-tetrazol-1-yl)benzoate]
3000 to 25000	–	Cc1c(C(=O)O)cc(Nc2ncc(F)c(NC3CC(C)(C)NC(C)(C)C3)n2)cc1-n1nnn(C)c1=O [I-61]
< 500	–	CNC(=O)c1cc(Nc2ncc(F)c(NC3CC(C)(C)N(C)C(C)(C)C3)n2)cc(-n2nnn(C)c2=O)c1C [I-64, 5-(5-fluoro-4-(1,2,2,6,6-pentamethylpiperidin-4-ylamino)pyrimidin-2-ylamino)-N,2-dimethyl-3-(4-methyl-5-oxo-4,5-dihydro-1H-tetrazol-1-yl)benzamide]
3000 to 25000	–	Cc1c(C(=O)O)cc(Nc2ncc(F)c(NC3CC(C)(C)N(C)C(C)(C)C3)n2)cc1-n1nnn(C)c1=O [I-65, 5-((5-fluoro-4-((1,2,2,6,6-pentamethylpiperidin-4-yl)amino)-2-pyrimidinyl)amino)-2-methyl-3-(4-methyl-4,5-dihydro-5-oxo-1H-tetrazol-1-yl)benzoic Acid]
